In data set [1] the test system is Plasmodium falciparum. Briefly: Hit confirmation in dose-response curve in Dd2 pLDH assay, at 72h. In kind it is functional, organism-based, Erythrocyte. Further details: timepoint 72 hour. As to conditions: Plasmodium falciparum, Dd2, Erythrocyte, 72 h.
Data set [2] concerns Plasmodium falciparum. The data set is described as follows: Hit confirmation in dose-response curve in NF54 nanoGlo assay, at 12h. In kind it is functional, organism-based, Erythrocyte. The arrangement: timepoint 12 hour. The note with it: Plasmodium falciparum, NF54, Erythrocyte, 12 h.
Data set [3] can be described thus: Hit confirmation in dose-response curve in HepG2 cytotoxicity assay, at 72h. In kind it is toxicity, cell-based, Homo sapiens. The arrangement: timepoint 72 hour. As to conditions: human, HepG2 cells.
In data set [4] the test system is Plasmodium falciparum. The data set is described as follows: Hit confirmation in dose-response curve in NF54 nanoGlo assay, at 72h. It counts as functional, organism-based, Erythrocyte. Further details: timepoint 72 hour. As to conditions: Plasmodium falciparum, NF54, Erythrocyte, 72 h.
The test system of data set [5] is Plasmodium falciparum. Briefly: Hit confirmation in dose-response curve in NF54 pLDH assay, at 72h. It counts as functional, organism-based, Erythrocyte. Further details: timepoint 72 hour. As to conditions: Plasmodium falciparum, NF54, Erythrocyte, 72 h.

Molecules are shown by their SMILES. pIC50: −log10 of the molar value.

For `CCCN1CCC(Nc2cc(C)nc3ccccc23)CC1`, the pIC50 (as a rule, the IC50 on a negative log10 scale, so that one unit is a factor of ten) with Plasmodium falciparum [1] was 5.75; with Plasmodium falciparum [2] it was 5.27; with Plasmodium falciparum [4], 5.66; in the data set on Plasmodium falciparum [5], 5.64. In data set [3], the IC50 (commonly the midpoint of a concentration-inhibition curve) at 72 h was greater than 10 µM.
As for `COc1ccc2cc(-c3cc(N)ccn3)[nH]c2c1`, the negative logarithm of the IC50 (pIC50) is 5.38 with Plasmodium falciparum [1], 5.22 in the data set on Plasmodium falciparum [2], 5.54 in the data set on Plasmodium falciparum [4] and 5.34 with Plasmodium falciparum [5]. The compound also had an IC50 at 72 h in data set [3] greater than 10 µM.
In the case of `CCOc1cccc(N2CCN(C(=O)c3cc(-c4ccc(F)cc4)[nH]n3)CC2)n1`, the pIC50 in the data set on Plasmodium falciparum [1] is less than 5.00; with Plasmodium falciparum [2], 5.53; in the data set with Plasmodium falciparum [4], 5.30; in the data set with Plasmodium falciparum [5], less than 5.00. Moreover, the IC50 at 72 h in data set [3] is greater than 10 µM.
For the compound `Cc1cnccc1NCCNCc1cnc(N2CCCCC2)nc1`, the negative-log IC50 (pIC50) in the data set on Plasmodium falciparum [1] was 5.67; in the data set on Plasmodium falciparum [2] it was less than 5.00; with Plasmodium falciparum [4], 5.60; with Plasmodium falciparum [5] it was 5.47. The IC50 at 72 h in data set [3] is greater than 10 µM.
As for `OCCN1CCC(NCCc2cc(Cl)cc(Cl)c2)CC1`, the pIC50 in the data set with Plasmodium falciparum [1] is 5.48; with Plasmodium falciparum [2], 5.18; with Plasmodium falciparum [4] it was 5.39; in the data set with Plasmodium falciparum [5] it was 5.44. The IC50 at 72 h in data set [3] was greater than 10 µM.
Regarding `O=C1CN(C(=O)c2ccnc3ccccc23)CCN1Cc1ccccc1F`, the pIC50 with Plasmodium falciparum [1] is less than 5.00; in the data set with Plasmodium falciparum [2], less than 5.00; with Plasmodium falciparum [4], 5.20; in the data set with Plasmodium falciparum [5] it was 4.84. The IC50 at 72 h in data set [3] is greater than 10 µM.
Regarding `CCc1ccc2ncnc(NCCCN3CCN(CCO)CC3)c2c1`, the pIC50 in the data set on Plasmodium falciparum [1] was 5.24; with Plasmodium falciparum [2], 5.01; in the data set on Plasmodium falciparum [4] it was 5.25; in the data set on Plasmodium falciparum [5], 5.20. Besides, the half-inhibitory concentration (IC50) at 72 h in data set [3] was greater than 10 µM.
Regarding `O=C1C2CCCCC2C(c2c(-c3ccccc3)[nH]c3ccccc23)N1Cc1ccccc1` (stereo not given), the pIC50 with Plasmodium falciparum [1], in the data set with Plasmodium falciparum [2], in the data set on Plasmodium falciparum [4] and in the data set with Plasmodium falciparum [5] was less than 5.00 each time. In data set [3], this compound displayed an IC50 at 72 h greater than 10 µM.
Turning to `CN1CCC(N2CCC(NC(=O)c3ccc(S(=O)(=O)N(C)C4CCCCC4)cc3)CC2)CC1`, the pIC50 in the data set with Plasmodium falciparum [1] was 5.41; in the data set on Plasmodium falciparum [2] it was 5.03; in the data set on Plasmodium falciparum [4], 5.37; with Plasmodium falciparum [5], 5.23. The compound further came in with an IC50 at 72 h in data set [3] greater than 10 µM.
For `Cc1nc2ccc(CNC3CCN(c4ccc(F)c(F)c4)CC3)cc2[nH]1`, in that order: 5.45, less than 5.00, 5.34, 5.43 and greater than 10 µM.
The like results for `O[C@@]1(c2c[nH]nn2)CCN(c2ccnc3cc(Cl)ccc23)C1` were, in that order, 5.42, 5.29, 5.56, 5.29 and greater than 10 µM.
The like results for `Cc1ccccc1-c1cccc(N2CCC(NCC3CCNCC3)CC2)c1` were, in that order, 5.89, 5.54, 5.94, 5.85 and 5.5 µM.
On to `NCC1(O)CCN(c2ccnc3cc(F)c(Cl)cc23)CC1`, for which the pIC50 with Plasmodium falciparum [1] was 5.49; in the data set with Plasmodium falciparum [2], 5.51; in the data set on Plasmodium falciparum [4] it was 5.74; with Plasmodium falciparum [5], 5.66. Also, the IC50 at 72 h in data set [3] was greater than 10 µM.
For `Nc1ccc(Nc2ccc(F)cc2)c2ccncc12`, in that order: 5.36, 5.13, 5.36, 5.13 and greater than 10 µM.
The like results for `CN(Cc1cn(CC(N)=O)c2ccccc12)CC1CCN(CCc2ccc(F)cc2)CC1` were, in that order, 5.36, 5.13, 5.39, 5.38 and greater than 10 µM.
The like results for `CC(C)(C)c1ccc(CNC[C@H](O)c2ccc(F)cc2F)cc1` were, in that order, 5.71, 5.84, 6.05, 5.55 and greater than 10 µM.
Consider `CN1CCN(c2ccc(C(F)(F)F)cc2NCc2cnc[nH]2)CC1`, for which the pIC50 with Plasmodium falciparum [1] was 5.37; in the data set on Plasmodium falciparum [2], 5.18; in the data set on Plasmodium falciparum [4], 5.39; in the data set with Plasmodium falciparum [5], 5.33. Further, in data set [3], the IC50 at 72 h was greater than 10 µM.
The like results for `CCN1CCC[C@H](Nc2cccc(-n3ccnc3)n2)C1` were, in that order, 5.42, 5.15, 5.44, 5.36 and greater than 10 µM.
On to `Fc1ccc(N2CC[C@H](CN3CCC(c4c[nH]c5ccccc45)(c4c[nH]c5ccccc45)CC3)C2)cc1`, for which the negative logarithm of the IC50 (pIC50) with Plasmodium falciparum [1] is 5.37; in the data set with Plasmodium falciparum [2], 5.60; in the data set on Plasmodium falciparum [4], 5.72; with Plasmodium falciparum [5], 5.18. Moreover, the IC50 at 72 h in data set [3] was greater than 10 µM.
The like results for `O[C@@H](CNCc1cc2cc(Cl)c(Cl)cc2[nH]1)c1ccc(F)cc1` were, in that order, 5.47, 5.30, 5.63, 5.07 and greater than 10 µM.
The like results for `COc1cc2nc(NCC3(N4CCN(C)CC4)CCCC3)cc(C)c2cc1OC` were, in that order, 5.65, 5.07, 5.67, 5.46 and greater than 10 µM.
In the case of `Cc1ccc(CNc2ncnc(N)c2Cl)c(N2CCCC2)n1`, the pIC50 was less than 5.00 with Plasmodium falciparum [1], 5.97 in the data set with Plasmodium falciparum [2], 5.61 in the data set on Plasmodium falciparum [4] and less than 5.00 with Plasmodium falciparum [5]. Further, in data set [3], the IC50 at 72 h is greater than 10 µM.
As to `O[C@@H](CNCc1ccc2c(c1)CCO2)c1ccc(F)c(F)c1`, the pIC50 was 5.43 in the data set with Plasmodium falciparum [1], 5.25 in the data set on Plasmodium falciparum [2], 5.64 in the data set on Plasmodium falciparum [4] and 5.08 in the data set with Plasmodium falciparum [5]. The same compound displayed an IC50 at 72 h in data set [3] greater than 10 µM.
In the case of `O[C@H]1CCN(Cc2cccc(NCc3cn4ccnc4s3)c2)C1`, the negative-log IC50 (pIC50) was 5.42 with Plasmodium falciparum [1], 5.00 in the data set with Plasmodium falciparum [2], 5.41 with Plasmodium falciparum [4] and 5.38 in the data set with Plasmodium falciparum [5]. The same compound had an IC50 at 72 h in data set [3] greater than 10 µM.
`O=C(NCc1ccc(OC(F)(F)F)cc1)N(CCN1CCCC1)[C@H]1CCCNC1`: the pIC50 is 5.35 with Plasmodium falciparum [1], less than 5.00 with Plasmodium falciparum [2], 5.34 with Plasmodium falciparum [4] and 5.27 with Plasmodium falciparum [5]. The compound further showed an IC50 at 72 h in data set [3] greater than 10 µM.
As for `CC(CNc1nc(NCC(C)N2CCOCC2)c2cc(Cl)ccc2n1)N1CCOCC1` (stereo not given), the pIC50 in the data set with Plasmodium falciparum [1] is 5.80; with Plasmodium falciparum [2], less than 5.00; in the data set with Plasmodium falciparum [4], 5.76; in the data set on Plasmodium falciparum [5], 5.72. The IC50 at 72 h in data set [3] was greater than 10 µM.
The like results for `CN(C)C1(CNc2nc(C(F)(F)F)nc3cc4c(cc23)OCO4)CCCCCC1` were, in that order, 5.46, less than 5.00, 5.53, 5.90 and greater than 10 µM.
On to `N#Cc1cccc(Cl)c1N1CCC(N2CCCC2)CC1`, for which the pIC50 in the data set on Plasmodium falciparum [1] was 5.42; with Plasmodium falciparum [2], less than 5.00; in the data set with Plasmodium falciparum [4], 5.52; in the data set with Plasmodium falciparum [5], 5.41. Moreover, in data set [3], the IC50 at 72 h is greater than 10 µM.
